Legend:
[1] = tested on: LNCaP, PC-3; conditions: Shiau et al, 2006; cited from earlier work
[2] = tested on: MCF7; conditions: Arya et al; cited from earlier work
[3] = tested on: B16(F10); conditions: cited from earlier work
[4] = tested on: neoplastIc + SA mammary epithelial cells; conditions: cited from earlier work
[5] = tested on: Ras-transformed B9 cells with a defective Complex II; experiment: Apoptosis in Ras-transformed B1 and B9 cells (FIG. 4C); assay type: cell-based, Chinese hamster
Experimental: 4C—After 24 h of treatment with Complex II targeting drugs TTFA or MitoVES, Ras transformed B1 and B9 cells were assessed for apoptosis using the Annexin V binding method.
The following cell lines used in this study were obtained from ATCC, unless specified otherwise: Human T lymphoma cells Jurkat, human mesothelioma cells Meso-I, MM-BI, Ist-Mes, Ist-Mes-2 (Pass, H. I. et al. Characteristics of nine newly derived mesothelioma cell lines. Ann. Thorac. Surg. 59, 835-844 (1995)), human breast cancer cells MCF-7 (erbB2-low) and MDA-MB-453 (erbB2-high), human colorectal cells HCT-116, human hepatocarcinoma cells Huh-7, mouse mesothelioma cells AE17 (Jackaman, C. et al. IL-2 intratumoral immunotherapy enhances CD8+ T cells that mediate destruction of tumor cells and tumor-associated vasculature: a novel mechanism for IL-2. J. Immunol. 171, […] (2003), human non-malignant mesothelial cells Met-5A, […] (Claycomb, W. C. et al. HL-1 cells: a cardiac muscle cell line that contracts and retains phenotypic characteristics of the adult cardiomyocyte. Proc. Natl. Acad. Sci. USA 95, 2979-2984 […]) and H9c2, and the human endothelial-like cells EAhy926 (Edgell, C. J., McDonald, C. C. & Graham, J. B. Permanent cell line expressing human factor VIII-related antigen established by hybridization. Proc. Natl. Acad. Sci. USA 80, 3734-3737 (1983)). Jurkat cells were grown in the RPMI medium while DMEM was used for other malignant cell lines and for Met-5A cells, supplemented with 10% FCS and antibiotics. HL-1 cells, maintained in fibronectin/gelatine-coated dishes, were grown in the Claycomb medium supplemented with noradrenalin (Claycomb, W. C. et al. HL-1 cells: a cardiac muscle cell line that contracts and retains phenotypic characteristics of the adult cardiomyocyte. Proc. Natl. Acad. Sci. USA 95, 2979-2984 […]), EAhy926 cells were grown in complete DMEM supplemented with HAT (Edgell, C. J., McDonald, C. C. & Graham, J. B. Permanent cell line expressing human factor VIII-related antigen established by hybridization. Proc. Natl. Acad. Sci. USA 80, 3734-3737 (1983)). Cells deficient in mtDNA (ρ^0 phenotype) were prepared as detailed in Weber, T. et al., (Mitochondria play a central role in apoptosis induced by α-tocopheryl succinate, an agent with anticancer activity. Comparison with receptor-mediated pro-apoptotic signaling. Biochemistry 42, 4277-4291 (2003)). Acquisition of the ρ^0 phenotype was confirmed by lack of expression by the cells of the mtDNA-encoded cytochrome c oxidase subunit II (COXII not shown). […]

[6] = tested on: Jurkat; experiment: MTT viability assay (IC50); assay type: cell-based, human
From the text: (§1) The following cell lines used in this study were obtained from ATCC, unless specified otherwise: Human T lymphoma cells Jurkat, human mesothelioma cells Meso-I, MM-BI, Ist-Mes, Ist-Mes-2 (Pass, H. I. et al. Characteristics of nine newly derived mesothelioma cell lines. Ann. Thorac. Surg. 59, 835-844 (1995)), human breast cancer cells MCF-7 (erbB2-low) and MDA-MB-453 (erbB2-high), human colorectal cells HCT-116, human hepatocarcinoma cells Huh-7, mouse mesothelioma cells AE17 (Jackaman, C. et al. IL-2 intratumoral immunotherapy enhances CD8+ T cells that mediate destruction of tumor cells and tumor-associated vasculature: a novel mechanism for IL-2. J. Immunol. 171, […] (2003), human non-malignant mesothelial cells Met-5A, […] (Claycomb, W. C. et al. HL-1 cells: a cardiac muscle cell line that contracts and retains phenotypic characteristics of the adult cardiomyocyte. Proc. Natl. Acad. Sci. USA 95, 2979-2984 […]) and H9c2, and the human endothelial-like cells EAhy926 (Edgell, C. J., McDonald, C. C. & Graham, J. B. Permanent cell line expressing human factor VIII-related antigen established by hybridization. Proc. Natl. Acad. Sci. USA 80, 3734-3737 (1983)). Jurkat cells were grown in the RPMI medium while DMEM was used for other malignant cell lines and for Met-5A cells, supplemented with 10% FCS and antibiotics. HL-1 cells, maintained in fibronectin/gelatine-coated dishes, were grown in the Claycomb medium supplemented with noradrenalin (Claycomb, W. C. et al. HL-1 cells: a cardiac muscle cell line that contracts and retains phenotypic characteristics of the adult cardiomyocyte. Proc. Natl. Acad. Sci. USA 95, 2979-2984 […]), EAhy926 cells were grown in complete DMEM supplemented with HAT (Edgell, C. J., McDonald, C. C. & Graham, J. B. Permanent cell line expressing human factor VIII-related antigen established by hybridization. Proc. Natl. Acad. Sci. USA 80, 3734-3737 (1983)). Cells deficient in mtDNA (ρ^0 phenotype) were prepared as detailed in Weber, T. et al., (Mitochondria play a central role in apoptosis induced by α-tocopheryl succinate, an agent with anticancer activity. Comparison with receptor-mediated pro-apoptotic signaling. Biochemistry 42, 4277-4291 (2003)). Acquisition of the ρ^0 phenotype was confirmed by lack of expression by the cells of the mtDNA-encoded cytochrome c oxidase subunit II (COXII not shown). Chinese hamster lung fibroblasts deficient in complex I (B10 cells) (See, B. B. et al. Molecular remedy of complex I defects: rotenone-insensitive internal NADH-quinone oxidoreductase of Saccharomyces cerevisiae mitochondria restores the NADH oxidase activity of complex I-deficient mammalian cells. Proc. Natl. Acad. Sci. USA 95, 9167-9171 (1998)) and complex II (CybL^−/−; B9 cells) (Oostveen, F. G., Au, H. C., Meijer, P. J. & Scheffler, I. E. A Chinese hamster mutant cell line with a defect in the integral membrane protein CII-3 of complex II of the mitochondrial electron transport chain. J. Biol. Chem. 270: 26104-26108 (1995)) as well as the parental cells (B1 cells) (Oostveen, F. G., Au, H. C., Meijer, P. J. & Scheffler, I. E. A Chinese hamster mutant cell line with a defect in the integral membrane protein CII-3 of complex II of the mitochondrial electron transport chain. J. Biol. Chem. 270: 26104-26108 (1995)) were grown in DMEM with 10% FCS, antibiotics, 10 mg/ml glucose and non-essential aminoacids.
(§2) Toxicity of α-TOS, VE11S (“VES”), MitoVE3S, MitoVE5S, MitoVE7S, MitoVE9S, MitoVE11S (“MitoVES”), MitoVE11AE (“MitoVEAE”), MitoVE11F (“MitoVEF”), MitoVE11M (“MitoVEM”), and VES4TPP towards cancer cells was assessed on the basis of IC50, as detailed in Turanek, J., et al. ((2008). Liposomal formulation of vitamin E analogs as an efficient and selective anti-cancer treatment. Clin. Cancer Res. (submitted)). […]

[7] = tested on: MCF-7; experiment: MTT viability assay (IC50); assay type: cell-based, human; conditions: MCF-7, ~60% confluency
From the text: as §1, §2

[8] = tested on: Meso-2; experiment: MTT viability assay (IC50); assay type: cell-based, human; conditions: Meso-2, ~60% confluency
From the text: as §1, §2

[9] = tested on: H9c2; experiment: MTT viability assay (IC50); assay type: cell-based, rat; conditions: H9c2, ~60% confluency
From the text: as §1, §2

[10] = tested on: HL-1; experiment: MTT viability assay (IC50); assay type: cell-based, rat; conditions: HL-1, ~60% confluency
From the text: as §1, §2

[11] = target: T1, α-tocopherol transfer protein (α-TTP) (Rattus norvegicus, UniProt P41034); conditions: Hosomi et al 1997; cited from earlier work
T1 sequence (P41034 1-278): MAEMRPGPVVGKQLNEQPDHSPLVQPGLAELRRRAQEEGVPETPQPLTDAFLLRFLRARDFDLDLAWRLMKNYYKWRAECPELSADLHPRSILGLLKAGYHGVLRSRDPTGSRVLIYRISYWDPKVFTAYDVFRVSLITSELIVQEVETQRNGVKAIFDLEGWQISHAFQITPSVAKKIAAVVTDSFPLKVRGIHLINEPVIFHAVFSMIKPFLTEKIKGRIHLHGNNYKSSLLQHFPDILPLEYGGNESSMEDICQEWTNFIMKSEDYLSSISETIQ

[12] = Table VI: Jurkat 0.5 × 10^6 per ml, analogs added as EtOH solution, MTT

## Cc1c(C)c2c(c(C)c1OC(=O)CCC(=O)O)CCC(C)(CCCC(C)CCCC(C)C)O2 (centres unmarked) [Nr 43]
[1]
  IC50: 4 to 9 µM

## Cc1c(C)c2c(c(C)c1OCCC(=O)O)CCC(C)(CCCC(C)CCCC(C)C)O2 (centres unmarked) [Nr 44]
[1]
  IC50: 4 to 8 µM

## Cc1c(C)c2c(c(C)c1OC(=O)CCC(=O)O)CCC(C)(C)O2 [Nr 46]
[1]
  IC50: > 100 µM

## Cc1c(C)c2c(c(C)c1OC(=O)C(N)CCCCN)CCC(C)(CO)O2 (centres unmarked) [Nr 47]
[2]
  IC50: 194 µM

## CCCCCOCC1(C)CCc2c(C)c(OC(=O)C(N)CCCCN)c(C)c(C)c2O1 (centres unmarked) [Nr 48]
[2]
  IC50: 22 µM

## CCCCC(=O)OCC1(C)CCc2c(C)c(OC(=O)C(N)CCCCN)c(C)c(C)c2O1 (centres unmarked) [Nr 49]
[2]
  IC50: 15 µM

## CC(C)=CCCC(C)=CCCC(C)=CCCC1(C)CCc2cc(O)c(C)c(C)c2O1 (centres unmarked) [Nr 56]
[3]
  IC50: 20 µM
[4]
  IC50: 4 µM

## CC(C)=CCCC(C)=CCCC(C)=CCCC1(C)CCc2cc(O)cc(C)c2O1 (centres unmarked) [Nr 59]
[3]
  IC50: 10 µM

## CC(C)=CCCC(C)=CCCC(C)=CCCC1(C)CCc2cc(O)ccc2O1 (centres unmarked) [Nr 60]
[3]
  IC50: 0.9 µM

## O=C(CC(=O)C(F)(F)F)c1cccs1 [TTFA, reference compound]
[5]; 24 h treatment, Annexin V binding
  sensitivity to apoptosis of Ras-transformed B9 cells compared to Ras-transformed B1 cells: much less sensitive
[5]; B9 cells transfected to express human SDHC
  sensitivity after reconstitution of Complex II function (human SDHC) in Ras-transformed B9 cells: restored the sensitivity

## Cc1c(C)c2c(c(C)c1OC(=O)CCC(=O)OCCCC[P+](c1ccccc1)(c1ccccc1)c1ccccc1)CCC(C)(CCCC(C)CCCC(C)CCCC(C)C)O2 (centres unmarked) [VES4TPP]
[6]; Jurkat, treated at 0.5 × 10^6 per ml, MTT viability curves
  IC50: 21 ± 5 µM
[6]; [12]
  IC50: 21 ± 5 µM
[7]
  IC50: 19 ± 3 µM
[8]
  IC50: 28 ± 6 µM
[9]
  IC50: > 100 µM
[10]
  IC50: > 100 µM

## Cc1c(C)c2c(c(C)c1O)CC[C@@](C)(CCC[C@H](C)CCC[C@H](C)CCCC(C)C)O2 [α-TOH, α-tocopherol, reference compound]
[6]; [12]
  IC50: > 100 µM
[11]
  relative affinities for α-TTP: 100%

## Cc1cc(O)c(C)c2c1O[C@](C)(CCC[C@H](C)CCC[C@H](C)CCCC(C)C)CC2 [β-tocopherol]
[11]
  relative affinities for α-TTP: 38%

## Cc1c(O)cc2c(c1C)O[C@](C)(CCC[C@H](C)CCC[C@H](C)CCCC(C)C)CC2 [γ-tocopherol]
[11]
  relative affinities for α-TTP: 9%

## Cc1cc(O)cc2c1O[C@](C)(CCC[C@H](C)CCC[C@H](C)CCCC(C)C)CC2 [δ-tocopherol]
[11]
  relative affinities for α-TTP: 2%
